Assays:
VRE [1] = assay: MIC against VRE, NCCLS broth microdilution; assay type: cell-based; settings: all VRE in this study cultured in CAMHB
Protocol: (§1) The efficacy of ramoplanin was tested against recently isolated VRE that are resistant to linezolid and quinupristin/dalfopristin. The culture media containing ramoplanin was supplemented with 0.02% bovine serum albumin (BSA) to prevent ramoplanin binding to the plastic. MIC values were determined in both cation-adjusted Mueller-Hinton broth (CAMHB) and trypticase soy broth (TSB) by the National Committee for Clinical Laboratory Standards (NCCLS) broth microdilution method. Macromolecular biosynthesis experiments were done by following the incorporation of carbon-14-labeled N-acetylglucosamine, acetic acid, amino acids, uridine, and thymidine into peptidoglycan, fatty acid, protein, RNA and DNA, respectively.

[2] = Multiple dose study in healthy male volunteers: absorption and fecal concentrations; assay type: in vivo, human
Protocol: (§2) Healthy male volunteers were administered 200, 400, or 800 mg ramoplanin twice-a-day, for ten consecutive days. The predetermined dose was reconstituted in 5 mL water per vial, mixed with 50 mL of sweetened, aromatized solution, and immediately administered orally to the subjects.
No absorption from the human gastrointestinal tract was observed.

[3] = Bioavailability and serum pharmacokinetics in Beagle dogs; assay type: in vivo
Protocol: The bioavailability of a 300 mg/kg ramoplanin oral gelatin capsule and the serum pharmacokinetics of a 5 mg/kg intravenous dose were examined in four male Beagle dogs.

peptidoglycan synthesis = assay: Macromolecular biosynthesis (carbon-14 precursor incorporation); assay type: cell-based; settings: ramoplanin at the MIC
Protocol: as §1

[4] = test system: Gram-positive bacteria (staphylococci, streptococci, enterococci) in feces; assay: Multiple dose study: activity on stool microflora, Gram-positive bacteria; assay type: in vivo, human
Protocol: as §2
(§3) The antibacterial activity of ramoplanin on the stool microflora was assessed in a subset of the subjects. Microbial concentrations (i.e., the number of organisms per gram of fecal matter) were determined at the following time points: Day-4 (pre-treatment), Days 4 and 10 (treatment), and Days […] and 24 (follow-up). Tolerability and absorption were also investigated.

[5] = test system: Gram-negative bacteria (enteric bacteria and Bacteroides spp.) or yeast; assay: Multiple dose study: activity on stool microflora, Gram-negative bacteria and yeast; assay type: in vivo, human; settings: healthy male volunteers, oral 200, 400, 800 mg B.I.D. 10 days
Protocol: as §2, §3

fecal Enterococci = assay: Oral formulation study: suppression of fecal Enterococci; assay type: in vivo, human; settings: 400 mg b.i.d. seven days, granulated powder in Orasweet syrup; day 7/8
Protocol: To further elucidate the pharmacodynamics and intestinal bioavailability, healthy male volunteers (18-45 years; BMI—19-29 kg/m^2) were administered oral ramoplanin (400 mg b.i.d.) for seven days and fecal Enterococci were monitored. Ramoplanin was administered to six subjects as a granulated powder admixed with Orasweet® syrup vehicle.
The presence of fecal enterococci was confirmed in all subjects prior to study initiation. Fecal samples were cultured on day 7/8. The pharmacodynamic endpoints was the number of subjects with successful suppression of fecal Enterococci on day 7/8 compared to the pre-study culture.

VRE [6] = assay: Multiple dose study in asymptomatic carriers of intestinal VRE; assay type: in vivo, human; settings: for patients with no detectable VRE, number / patients with no detectable VRE: Day 7; for patients with no detectable VRE: rectal swab; for patients VRE free: Day 14 (seven days after cessation); for patients VRE free, number: Day 14
Protocol: Patients identified as asymptomatic carriers of VRE were administered placebo or one of two dosages (100 mg, 400 mg) of ramoplanin b.i.d. (twice daily) for seven days. Patients were assessed by rectal swab on Days 7, 14, and 21 to determine the presence or absence of VRE. On Days 45 and 90, stool samples were analyzed for long-term effects of ramoplanin on the recurrence of, or re-infection with, VRE. All VRE isolates were tested for susceptibility to ramoplanin.

[7] = Oral bioavailability and pharmacokinetics in the rat; assay type: in vivo
Protocol: The oral availability of ramoplanin was assessed by comparing a 1000 mg/kg oral dose with a 5 mg/kg intravenous dose in the rat. […] The mean absorption time was 3.4 hours. […] Terminal elimination half-lives were 3.5 and 5.9 hours for the intravenous and oral doses, respectively. […] In intravenously treated rats, the amount excreted in urine represented less than 0.01% of the administered dose.

[8] = Storage stability of ramoplanin granules and reconstituted solution; assay type: physicochemical; settings: refrigerated conditions
Protocol: Ramoplanin is available as granules for oral solution, provided, for example, in packets containing 400 mg free base of ramoplanin, along with pharmaceutically acceptable excipients (e.g., mannitol, hydroxypropyl methylcellulose, magnesium stearate). The contents of the packet can be reconstituted with approximately 15-30 mL of water, and the resulting solution either consumed directly, or further diluted with water, cranberry juice, apple juice, or 7-Up prior to drinking. After consumption, the drug may be followed with subsequent amounts of these beverages or with food (e.g., cracker, bread). […] The reconstituted ramoplanin aqueous solution has a shelf life of 48 hours when stored at refrigerated conditions.

Substance: Ramoplanin
- MIC (VRE [1]): 0.125 to 0.25 mg/L
- absorption from the human gastrointestinal tract ([2]; 200, 400 or 800 mg twice-a-day, ten days): No absorption
- urine levels of ramoplanin ([2]; Day 1 and 5 and pooled urine up to 72-96 after the last dose): No levels were found in urine
- average fecal concentration of ramoplanin ([2]; Day 3, 200 mg twice-a-day): 827 µg/g
- average fecal concentration of ramoplanin ([2]; Day 3, 400 mg twice-a-day): 1742 µg/g
- average fecal concentration of ramoplanin ([2]; Day 3, 800 mg twice-a-day): 1901 µg/g
- average fecal concentration of ramoplanin ([2]; Day 10, 200 mg twice-a-day): 949 µg/g
- average fecal concentration of ramoplanin ([2]; Day 10, 400 mg twice-a-day): 1417 µg/g
- average fecal concentration of ramoplanin ([2]; Day 10, 800 mg twice-a-day): 2647 µg/g
- serum levels of ramoplanin ([2]; Days 1, 5 and 10, hour 0.5-12 after the morning dose): no serum levels of ramoplanin were detected
- fecal concentrations post-treatment ([2]; four days post-treatment): remained detectable in some subjects
- cumulative recovery in feces ([2]; up to Day 4 post-treatment): 25 % of the administered dose
- distribution to tissues [3]: not distributed widely to tissues
- mean absorption time ([3]; 300 mg/kg oral gelatin capsule): 8.19 ± 3.12 h
- absolute bioavailability ([3]; 300 mg/kg oral gelatin capsule vs 5 mg/kg intravenous): less than 1%
- first macromolecular biosynthetic pathway inhibited (peptidoglycan synthesis): peptidoglycan synthesis
- concentrations of staphylococci, streptococci, and enterococci in stool ([4]; by Day 10, all subjects): below the level of detection
- effect on Gram-positive bacteria in stool ([4]; first measurement on Day 4 of treatment): marked effect
- intestinal flora after therapy ([4]; follow-up after the 10-day therapy): re-colonized by normal Gram-positive bacteria
- Gram-positive colony counts in feces ([4]; healthy male volunteers, all doses (200, 400, 800 mg B.I.D.), during the 10-day regimen): undetectable levels
- effect on Gram-negative flora / yeast in stool [5]: not effective
- effect on Gram-negative flora / yeast in stool ([5]; listed as ramoplanin): no effect
- growth of fecal enterococci (fecal Enterococci): suppressed in all test subjects
- patients with no detectable VRE, number (VRE [6]; 100 mg b.i.d. for seven days): 17 of 21
- patients with no detectable VRE (VRE [6]; 100 mg b.i.d. for seven days): 81.0%
- patients with no detectable VRE, number (VRE [6]; 400 mg b.i.d. for seven days): 18 of 20
- patients with no detectable VRE (VRE [6]; 400 mg b.i.d. for seven days): 90.0%
- patients VRE free (VRE [6]; 100 mg b.i.d.): 28.6%
- patients VRE free (VRE [6]; 400 mg b.i.d.): 41.2%
- patients VRE free, number (VRE [6]; 100 mg b.i.d.): 6 of 21
- patients VRE free, number (VRE [6]; 400 mg b.i.d.): 7 of 17
- number of VRE-free patients (VRE [6]; Day 21): comparable among all treatment groups
- amount excreted in urine ([7]; intravenously treated rats): less than 0.01 % of the administered dose
- distribution ([7]; rat): not widely distributed outside the central compartment
- volume of distribution at steady state ([7]; rat): 0.75 L/kg
- volume of the central compartment ([7]; rat): 0.42 L/kg
- time of maximum observed serum concentration ([7]; rat, 5 mg/kg intravenous): 0.083 h
- Maximum observed serum concentration ([7]; rat, 1000 mg/kg oral): 2.8 µg/mL
- mean absorption time ([7]; rat, 1000 mg/kg oral): 3.4 h
- time of maximum observed serum concentration ([7]; rat, 1000 mg/kg oral): 0.5 h
- absolute bioavailability (F) ([7]; rat, 1000 mg/kg oral relative to 5 mg/kg intravenous): 0.18%
- Terminal elimination half-life ([7]; rat, intravenous dose): 3.5 h
- Terminal elimination half-life ([7]; rat, oral dose): 5.9 h
- storage stability ([8]; 400 mg granulated powder packets): stable for at least one year
- shelf life ([8]; reconstituted ramoplanin aqueous solution): 48 h
